Holding throughout (experiment): NCI anticancer screen, dose series, 48 h
Experiment [1] deals with OVCAR-8 ovarian.
Experiment [2] relates to HCT-116 colon.
Experiment [3] has as its system K-562 leukemia.
In experiment [4] the test system is HCC-2998 colon.
The subject of experiment [5] is SF-295 CNS.
In experiment [6] the test system is RPMI-8226 leukemia.
The subject of experiment [7] is RXF 393 renal.
Experiment [8] relates to HCT-15 colon.
The test system of experiment [9] is DU-145 prostate.
The test system of experiment [10] is MCF7 breast.

TGI and GI50 data for 15 compounds are collected here from PubChem BioAssay (NCI).

The structures appear in SMILES notation.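 In this assay, cells in 96-well plates receive the compound at five concentrations for 48 hours. Endpoints are linearly interpolated between the surrounding concentrations. At the GI50, growth is halved. TGI: total growth inhibition.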

Regarding `CCOC(=O)c1c(-c2ccccc2)oc(-c2ccccc2)c1C(=O)OCC`, the TGI in experiment [1], in [2], in experiment [3], in experiment [4], in [5] and in [6] was more than 100 µM in each case. In experiment [7], this compound registered a TGI of more than 100 µM.

Regarding `Cc1noc2cccc(OCc3ccccc3)c12`, the TGI in experiment [1], in experiment [2], in [3], in [8], in experiment [5] and in [6] was more than 100 µM throughout. Moreover, the TGI in experiment [7] was more than 100 µM.

Turning to `O=c1cc(-c2ccccc2)oc2cc(O)c(O)c(O)c12`, the GI50 is 46.5 µM in experiment [1]; 25.1 µM in [9]; 11.1 µM in experiment [2]; 12.6 µM in experiment [3]; 15 µM in [4]; 8.25 µM in experiment [8]. For the same compound, the GI50 in experiment [5] is 11.7 µM; in [6], 9.27 µM; in experiment [7], 78.6 µM. Besides, the TGI in experiment [1] is more than 100 µM; in [9], more than 100 µM; in experiment [2], 31.8 µM; in experiment [3], more than 100 µM; in experiment [4], 37.9 µM; in experiment [8] it was 58.8 µM. The figures for the TGI in experiment [5], in experiment [6] and in experiment [7] were 46.4 µM, more than 100 µM and more than 100 µM, respectively.

Regarding `O=S(=O)(N/N=C/c1ccc(Cl)c(Cl)c1)c1ccccc1`, the TGI in [1], in experiment [2], in experiment [3], in [4], in experiment [8] and in [5] was more than 100 µM each time. The TGI in experiment [6] is more than 100 µM; in experiment [7], 63.2 µM.

As for `O=C(C=Nc1ccccc1C(=O)[O-])c1cccs1.O=C(C=Nc1ccccc1C(=O)[O-])c1cccs1.[Co+2]`, the TGI in experiment [1], in [2], in experiment [3], in experiment [4], in experiment [8] and in experiment [5] was more than 100 µM in each case.

Turning to `Cc1oc2c(C)c3oc(=O)cc(C)c3cc2c1CNC(=O)[C@@H]1OCCOCCOCCOCCOCCOC1C(=O)O` (some centres undefined), the TGI in [1], in [2], in experiment [3], in experiment [4], in [8] and in [5] was more than 100 µM in each case. The TGI in [6] and in experiment [7] was more than 100 µM throughout.

Regarding `Nc1ncnc2c1ncn2Cc1ccc(C23CC4CC(CC(C4)C2)C3)c(OCc2cc(F)c(F)cc2F)c1`, the GI50 in experiment [1] is 9.66 µM; in [9], 15.3 µM; in experiment [2] it was 3.08 µM; in experiment [10], 6.37 µM; in experiment [4] it was 6.26 µM; in experiment [8] it was 4.92 µM. Besides, the GI50 in experiment [5] was 6.29 µM; in experiment [7], 2.02 µM. Also, the TGI is more than 100 µM in [1]; more than 100 µM in experiment [9]; 13.2 µM in experiment [2]; 30.2 µM in experiment [10]; 57.8 µM in experiment [4]; more than 100 µM in experiment [8]. Also, the TGI in experiment [5] is more than 100 µM; in experiment [7], 8.36 µM.

For the compound `Cc1ccccc1C1=[N+]([O-])c2ccccc2C1=O`, the TGI in [1] is 30.3 µM; in experiment [2], 32.4 µM; in experiment [3] it was 45.7 µM; in experiment [8], 34.8 µM; in experiment [5] it was 44.9 µM; in experiment [6] it was more than 100 µM. In [7], this compound registered a TGI of 37.3 µM.

Turning to `COC(c1cccc(C(O)(C(F)(F)F)C(F)(F)F)c1)(C(F)(F)F)C(F)(F)F`, the TGI stood at 45.4 µM in [1]; 31 µM in experiment [2]; 21.7 µM in experiment [4]; 53.9 µM in [8]; 30.2 µM in [5]; 35.9 µM in experiment [7].

On to `COc1ccc2c(c1)C(=O)N1CCOC1C2C(=O)O` (centres undefined), for which the TGI in experiment [1] was more than 100 µM; in experiment [2] it was more than 100 µM; in [3], more than 100 µM; in experiment [4], more than 100 µM; in [8] it was more than 100 µM; in experiment [5], 29.8 µM. Besides, in experiment [6], the TGI is more than 100 µM.

On to `Cc1nc(-c2ccccc2)c(Cc2ccccc2O)c(=O)[nH]1`, for which the TGI in experiment [1], in [9], in [2], in [3], in experiment [10] and in experiment [8] was more than 100 µM in each case. Besides, the TGI in experiment [5], in experiment [6] and in experiment [7] was more than 100 µM each time.

With `CCCOC(=O)C1CCC(=O)N1C(=O)C(C)Cl` (centres undefined), the TGI in experiment [1], in [2], in experiment [3], in experiment [4], in experiment [8] and in experiment [5] was more than 100 µM in each case. Moreover, in experiment [6], the TGI was more than 100 µM.

As for `CC1(Cl)CC2OC3(Br)C=CC(C)(O)C2(CC1Br)C3(C)C` (centres undefined), the TGI in experiment [1], in experiment [2], in experiment [3], in [4], in [8] and in [5] was more than 100 µM in each case. Besides, the TGI in experiment [6] and in experiment [7] was more than 100 µM in each case.

`COc1cc2c(cc1O)-c1c(cnn1-c1ccc([N+](=O)[O-])cc1)CCC2`: the TGI in experiment [1] is 50.3 µM; in experiment [9], more than 100 µM; in experiment [2] it was 71.4 µM; in experiment [3], more than 100 µM; in experiment [10], more than 100 µM; in experiment [8] it was 30.5 µM. The TGI in experiment [5] was 82.5 µM; in [6], 16.6 µM; in [7], more than 100 µM.

Consider `CC1OC(n2ccc(=O)[nH]c2=O)C=C(OC(=O)c2ccccc2)C1=O` (centres undefined), for which the TGI in [1], in experiment [3], in [8], in experiment [5], in experiment [6] and in experiment [7] was more than 100 µM in each case.
